Numbers after ± are expanded uncertainties.
Assay: activity coefficient (dimensionless); of the first substance listed, at infinite dilution; xn = mol fraction of the nth substance listed
Details: 101.33 kPa, Liquid, Chromatography, x1 = 0

| Compound | activity coefficient (358.15 K) | activity coefficient (368.15 K) | activity coefficient (378.15 K) | activity coefficient (388.15 K) | activity coefficient (398.15 K) | activity coefficient (408.15 K) |
| --- | --- | --- | --- | --- | --- | --- |
| CC(C)c1ccccc1 [isopropylbenzene] + CCCC[P+](CCCC)(CCCC)CCCC.O=S(=O)([N-]S(=O)(=O)C(F)(F)F)C(F)(F)F | 1.92 ± 0.13 | 1.97 ± 0.13 | 2.02 ± 0.14 | 2.07 ± 0.14 | 2.12 ± 0.14 | 2.17 ± 0.15 |
| CO [methanol] + CCCC[P+](CCCC)(CCCC)CCCC.O=S(=O)([N-]S(=O)(=O)C(F)(F)F)C(F)(F)F | 1.28 ± 0.08 | 1.23 ± 0.08 | 1.18 ± 0.08 | 1.14 ± 0.07 | 1.1 ± 0.07 | 1.06 ± 0.07 |
| CCCC(=O)OC [methyl butanoate] + CCCC[P+](CCCC)(CCCC)CCCC.O=S(=O)([N-]S(=O)(=O)C(F)(F)F)C(F)(F)F | 0.946 ± 0.06 | 0.989 ± 0.062 | 1.03 ± 0.06 | 1.08 ± 0.07 | 1.12 ± 0.07 | 1.17 ± 0.07 |
| COC(C)=O [methyl ethanoate] + CCCC[P+](CCCC)(CCCC)CCCC.O=S(=O)([N-]S(=O)(=O)C(F)(F)F)C(F)(F)F | 0.753 ± 0.05 | 0.785 ± 0.051 | 0.816 ± 0.053 | 0.847 ± 0.054 | 0.878 ± 0.056 | 0.909 ± 0.058 |
| CCC(=O)OC [methyl propanoate] + CCCC[P+](CCCC)(CCCC)CCCC.O=S(=O)([N-]S(=O)(=O)C(F)(F)F)C(F)(F)F | 0.82 ± 0.053 | 0.857 ± 0.055 | 0.894 ± 0.057 | 0.931 ± 0.059 | 0.967 ± 0.061 | 1 ± 0.06 |
| CC1CCCCC1 [methylcyclohexane] + CCCC[P+](CCCC)(CCCC)CCCC.O=S(=O)([N-]S(=O)(=O)C(F)(F)F)C(F)(F)F | 3.5 ± 0.24 | 3.49 ± 0.24 | 3.48 ± 0.24 | 3.48 ± 0.24 | 3.47 ± 0.24 | 3.46 ± 0.24 |
| CCCCCCCCC [nonane] + CCCC[P+](CCCC)(CCCC)CCCC.O=S(=O)([N-]S(=O)(=O)C(F)(F)F)C(F)(F)F | 8.31 ± 0.57 | 8.15 ± 0.56 | 8.01 ± 0.55 | 7.87 ± 0.54 | 7.74 ± 0.53 | 7.62 ± 0.52 |
| C=CCCCCCC [oct-1-ene] + CCCC[P+](CCCC)(CCCC)CCCC.O=S(=O)([N-]S(=O)(=O)C(F)(F)F)C(F)(F)F | 4.9 ± 0.33 | 4.92 ± 0.34 | 4.94 ± 0.34 | 4.96 ± 0.34 | 4.98 ± 0.34 | 5.01 ± 0.34 |
| CCCCCCCC [octane] + CCCC[P+](CCCC)(CCCC)CCCC.O=S(=O)([N-]S(=O)(=O)C(F)(F)F)C(F)(F)F | 6.69 ± 0.46 | 6.62 ± 0.45 | 6.56 ± 0.45 | 6.5 ± 0.44 | 6.44 ± 0.44 | 6.39 ± 0.44 |
| CCCCCO [pentan-1-ol] + CCCC[P+](CCCC)(CCCC)CCCC.O=S(=O)([N-]S(=O)(=O)C(F)(F)F)C(F)(F)F | 1.81 ± 0.12 | 1.76 ± 0.12 | 1.71 ± 0.11 | 1.67 ± 0.11 | 1.63 ± 0.11 | 1.59 ± 0.11 |
| CCCC(C)=O [pentan-2-one] + CCCC[P+](CCCC)(CCCC)CCCC.O=S(=O)([N-]S(=O)(=O)C(F)(F)F)C(F)(F)F | 0.62 ± 0.043 | 0.651 ± 0.045 | 0.682 ± 0.046 | 0.714 ± 0.048 | 0.744 ± 0.049 | 0.774 ± 0.051 |
| CCC(=O)CC [pentan-3-one] + CCCC[P+](CCCC)(CCCC)CCCC.O=S(=O)([N-]S(=O)(=O)C(F)(F)F)C(F)(F)F | 0.629 ± 0.043 | 0.66 ± 0.045 | 0.69 ± 0.05 | 0.721 ± 0.048 | 0.75 ± 0.049 | 0.781 ± 0.051 |
| CCCCC [pentane] + CCCC[P+](CCCC)(CCCC)CCCC.O=S(=O)([N-]S(=O)(=O)C(F)(F)F)C(F)(F)F | 3.61 ± 0.25 | 3.62 ± 0.25 | 3.65 ± 0.25 | 3.66 ± 0.25 | 3.68 ± 0.25 | 3.7 ± 0.25 |
| CCCO [propan-1-ol] + CCCC[P+](CCCC)(CCCC)CCCC.O=S(=O)([N-]S(=O)(=O)C(F)(F)F)C(F)(F)F | 1.53 ± 0.1 | 1.47 ± 0.1 | 1.42 ± 0.09 | 1.37 ± 0.09 | 1.32 ± 0.09 | 1.28 ± 0.08 |
| CC(C)O [propan-2-ol] + CCCC[P+](CCCC)(CCCC)CCCC.O=S(=O)([N-]S(=O)(=O)C(F)(F)F)C(F)(F)F | 1.47 ± 0.1 | 1.42 ± 0.09 | 1.37 ± 0.09 | 1.33 ± 0.09 | 1.29 ± 0.08 | 1.26 ± 0.08 |
| CCCc1ccccc1 [propylbenzene] + CCCC[P+](CCCC)(CCCC)CCCC.O=S(=O)([N-]S(=O)(=O)C(F)(F)F)C(F)(F)F | 1.88 ± 0.13 | 1.93 ± 0.13 | 1.98 ± 0.13 | 2.03 ± 0.14 | 2.07 ± 0.14 | 2.12 ± 0.14 |
| C=Cc1ccccc1 [styrene] + CCCC[P+](CCCC)(CCCC)CCCC.O=S(=O)([N-]S(=O)(=O)C(F)(F)F)C(F)(F)F | 1.01 ± 0.06 | 1.05 ± 0.07 | 1.1 ± 0.07 | 1.14 ± 0.07 | 1.18 ± 0.08 | 1.23 ± 0.08 |
| C1CCOC1 [tetrahydrofuran] + CCCC[P+](CCCC)(CCCC)CCCC.O=S(=O)([N-]S(=O)(=O)C(F)(F)F)C(F)(F)F | 0.622 ± 0.043 | 0.653 ± 0.045 | 0.682 ± 0.046 | 0.712 ± 0.047 | 0.742 ± 0.049 | 0.772 ± 0.05 |
| c1ccsc1 [thiophene] + CCCC[P+](CCCC)(CCCC)CCCC.O=S(=O)([N-]S(=O)(=O)C(F)(F)F)C(F)(F)F | 0.782 ± 0.051 | 0.812 ± 0.053 | 0.842 ± 0.054 | 0.872 ± 0.056 | 0.9 ± 0.057 | 0.929 ± 0.059 |
| Cc1ccccc1 [toluene] + CCCC[P+](CCCC)(CCCC)CCCC.O=S(=O)([N-]S(=O)(=O)C(F)(F)F)C(F)(F)F | 1.11 ± 0.07 | 1.16 ± 0.07 | 1.2 ± 0.08 | 1.24 ± 0.08 | 1.28 ± 0.08 | 1.32 ± 0.09 |
| C=COC(C)=O [vinyl acetate] + CCCC[P+](CCCC)(CCCC)CCCC.O=S(=O)([N-]S(=O)(=O)C(F)(F)F)C(F)(F)F | 0.983 ± 0.062 | 1.01 ± 0.06 | 1.04 ± 0.07 | 1.07 ± 0.07 | 1.1 ± 0.07 | 1.13 ± 0.07 |
| O [water] + CCCC[P+](CCCC)(CCCC)CCCC.O=S(=O)([N-]S(=O)(=O)C(F)(F)F)C(F)(F)F | 4.2 ± 0.29 | 3.85 ± 0.26 | 3.53 ± 0.24 | 3.26 ± 0.22 | 3.02 ± 0.21 | 2.81 ± 0.19 |
